Data as given in patent US5332739A, “Pyrimidinedione derivatives and antiarrhythmic agents containing same” (Mitsui Toatsu Chemicals, Incorporated, priority 1990, dated 1994).
Counter-ions that a name gives are not always drawn.

Assays:
[1] = Toxicity Test 1 (oral, mortality 24 hours after administration); conditions: mouse, in vivo, 300 mg/kg (P.O), 2 to 4 mice per group, read-out: Mortality Rate (%)
Experimental: Each of the compounds prepared in the above-mentioned examples shown in Table B was administered into a mouse (ddy strain, male). In each case, the administration was effected by oral administration in a dose of 300 mg/kg.
A mortality rate (number of specimens: one group=2 to 4 mice) of the mice 24 hours after the administration was calculated, and the results are set forth in Table B.

[2] = test system: Purkinje fiber of the right ventricular free wall; test: Influence on Myocardial Action Potential Duration Time (APD75); type: cell-based, hybrid adult dog; conditions: Canis lupus familiaris, 20 min, 20 minutes' incubation, 1 Hz, 37° C.; for percent prolongation of action potential duration (APD75) at 1 µg/mL: Dose 1.0 (μg, ml); for percent prolongation of action potential duration (APD75) at 3 µg/mL: Dose 3.0 (μg, ml); for percent prolongation of action potential duration (APD75) at 10 µg/mL: Dose 10.0 (μg, ml); for percent prolongation of action potential duration (APD75) at 0.3 µg/mL: Dose 0.3 (μg, ml)
Experimental: To a hybrid adult dog, 30 mg/kg of pentobarbital was administered through a vein, and after being anesthetized, the heart was removed. Afterward, the right ventricular free wall of the heart was cut and taken out in a Tyrode solution.
The taken right ventricular free wall was fixed in an incubator at 37° C., and a nutritional solution (20 ml of the Tyrode solution) was refluxed.
In this isolated condition, myocardial action potential duration times (APD75) were measured before and after the administration of the respective compounds prepared in the above examples in Table A and d-sotalol as a control medicine, and APD75 (%) was calculated from the measured results in accordance with the formula: […]
A: APD75 before administration
B: APD75 after administration
Here, APD75 was measured as follows: A field stimulation of 1 Hz was given to the right ventricular free wall, and any variation of an action potential was depicted on an oscilloscope via a glass microelectrode (10 to 20 M.OMEGA.) thrust into a Purkinje fiber of the free wall and via an amplifier. Afterward, a waveform on the oscilloscope was analyzed by the use of a computer, and the time of from a point of the action potential generation to a point of 75% repolarization was measured. This measured time was regarded as the myocardial action potential duration time (APD75).
The compounds and d-sotalol shown in Table A were separately added to the refluxing nutritional solution (20 ml), and after 20 minutes' incubation, APD75 after the administration was calculated from the variation of the myocardial action potential duration time.
Incidentally, this test was carried out in accordance with a Sato et al's method [H. Sato, K. Hashimoto, Arzneimeittel Forschung, 34 (1), 3a, 376-380 (1984)].

[3] = test system: ventricular muscle (right ventricle); test: Influence on Ventricular Muscle Refractory Period (ERP); type: in vivo, mongrel adult dog; conditions: Canis lupus familiaris, iv, anesthetized dog, read-out: ERP (%; extensibility of refractory period); for change in vivo at 0.1 mg/kg: Dose 0.1 mg/kg i.v.; for change in vivo at 0.3 mg/kg: Dose 0.3 mg/kg i.v.; for change in vivo at 1 mg/kg: Dose 1.0 mg/kg i.v.; for change in vivo at 3 mg/kg: Dose 3.0 mg/kg i.v.
Experimental: Refractory periods were measured in the following manner before and after each of the compounds and d-sotalol shown an Table A was separately administered to a vein or a duodenum, and ERP (%; extensibility of refractory period) was calculated from the measured values in accordance with the following formula: […]
W: Refractory period after administration
Y: Refractory period before administration
To a mongrel adult dog, 30 mg/kg of pentobarbital was administered intravenously, and after being anesthetized, a pair of silver-silver chloride electrodes separated by 3 mm was sewn on an opened right ventricule, and electrical stimulation was given at an interval of 400 msec at a duration time of 4 msec under a current twice as much as the threshold. Afterward, a small amount of alcohol was injected into a sinus artery in order to extinguish a pacemaker activity, and the ventricular refractory period (ERP) was measured under ventricule pacing.
That is, 1 train comprised 10 stimulations, and an interval between two of the trains was usually 400 msec. At the time of the refractory period measurement, however, the above interval was shortened every 10 smec, and the interval between the trains at the time when reaction to the first stimulation of the train disappeared was regarded as the refractory period.
In this case, the electrical stimulation was fed in accordance with a program by a heart stimulation device (Diamedical Co., Ltd.; DHM-226-3).

Compound | mortality at 24 h [1] | percent prolongation of action potential duration (APD75) at 1 µg/mL [2] | percent prolongation of action potential duration (APD75) at 3 µg/mL [2] | percent prolongation of action potential duration (APD75) at 10 µg/mL [2] | change in vivo at 0.1 mg/kg [3] | change in vivo at 0.3 mg/kg [3] | change in vivo at 1 mg/kg [3] | change in vivo at 3 mg/kg [3] | percent prolongation of action potential duration (APD75) at 0.3 µg/mL [2]
Cn1c(N2CCN(CCCOc3ccc(C(F)(F)F)cc3)CC2)cc(=O)n(C)c1=O [Compound 2] | 50% | – | – | – | – | – | – | – | –
CC(=O)c1ccc(OCCCN2CCN(c3cc(=O)n(C)c(=O)n3C)CC2)cc1 [Compound 4] | 0% | 5% | 8% | – | – | – | – | – | –
Cn1c(N2CCN(CCCOc3ccc(-n4cncn4)cc3)CC2)cc(=O)n(C)c1=O [Compound 6] | 0% | 5% | 10% | 25% | 0% | 0% | 0% | 6.2% | –
Cn1c(N2CCN(CCCOc3ccc(S(C)(=O)=O)cc3)CC2)cc(=O)n(C)c1=O [Compound 7] | 0% | – | – | – | – | – | – | – | –
COC(=O)c1ccccc1OCCCN1CCN(c2cc(=O)n(C)c(=O)n2C)CC1 [Compound 21] | 0% | 11% | 23% | 26% | 7.1% | 7.1% | 7.1% | 14.3% | –
CC(=O)c1cc(Cl)ccc1OCCCN1CCN(c2cc(=O)n(C)c(=O)n2C)CC1 [Compound 45] | 50% | 42% | 71% | 75% | 0% | 2.4% | 9.5% | 18.6% | –
Cn1c(N2CCN(CCCOc3ccc(Cl)cc3)CC2)cc(=O)n(C)c1=O [Compound 64, 6-[4-(3-[4-chlorophenoxy]propyl)piperazin-1-yl]-1,3-dimethyl-2,4(1H,3H)-pyrimidinedione.hydrochloride] | 0% | 14% | 25% | – | 2% | 6.3% | 13% | 24.3% | 7%
Cn1c(N2CCN(CCCOc3ccccc3N)CC2)cc(=O)n(C)c1=O [Compound 69] | 0% | – | 24% | 34% | 0% | 6.3% | 12.5% | – | –
Cn1c(N2CCN(CCCCOc3ccc(Cl)cc3)CC2)cc(=O)n(C)c1=O [Compound 82, 6-[4-(4-[4-chlorophenoxy]butyl)piperazin-1-yl]-1,3-dimethyl-2,4(1H,3H)-pyrimidinedione.hydrochloride] | 0% | 16% | 28% | 43% | – | – | – | – | –
CC(=O)c1ccccc1CCN1CCN(c2cc(=O)n(C)c(=O)n2C)CC1 [Compound 85, 1,3-dimethyl-6-[4-(2-[2-acetylphenyl]ethyl)piperazin-1-yl]-2,4(1H,3H)-pyrimidinedione.oxalate] | 0% | – | – | – | – | – | – | – | –
Cn1c(N2CCN(CCCc3ccccc3)CC2)cc(=O)n(C)c1=O [Compound 89, 1,3-dimethyl-6-[4-(3-phenylpropyl)piperazin-1-yl]-2,4(1H,3H)-pyrimidinedione.hydrochloride] | – | 15% | 26% | 31% | 0% | 5.7% | 9.7% | 14% | –
Cn1c(N2CCN(CCc3ccc(Cl)cc3)CC2)cc(=O)n(C)c1=O [Compound 91, 1,3-dimethyl-6-[4-(2-[4-chlorophenyl]-ethyl)piperazin-1-yl]-2,4(1H,3H)-pyrimidinedione.hydrochloride] | – | 13% | 25% | – | 3.5% | 6.5% | 14.5% | – | –
CSc1ccc(OCCCN2CCN(c3cc(=O)n(C)c(=O)n3C)CC2)cc1 [Compound 98, 1,3-dimethyl-6-[4-(3-[4-methylthiophenoxy]propyl)piperazin-1-yl]-2,4 (1H,3H)-pyrimidinedione.hydrochloride] | – | 4% | 13% | 25% | 0% | 0% | 7.7% | 15.4% | –
Cn1c(N2CCN(CCCOc3ccc(NS(C)(=O)=O)cc3Cl)CC2)cc(=O)n(C)c1=O [Compound 111, 1,3-dimethyl-6-[4-(3-[2-chloro-4-methanesulfonamidophenoxy]propyl)piperazin-1-yl]-2,4(1H,3H)-pyrimidinedione.hydrochloride] | – | – | 19% | 36% | 0% | 2.4% | 8.6% | 15.2% | –
CSc1ccc(OCCCN2CCN(c3cc(=O)n(C)c(=O)n3C)CC2)c(NS(C)(=O)=O)c1 [Compound 113, 1,3-dimethyl-6-[4-(3-[4-methylmercapto-2-methanesulfonamidophenoxy]propyl)piperazin-1-yl]-2,4(1H,3H)-pyrimidinedione.hydrochloride] | – | 2% | 17% | 26% | 0% | 0% | – | 17.6% | –
CCN(CCCOc1ccc(C(=O)c2ccccc2)cc1)CCNc1cc(=O)n(C)c(=O)n1C [Compound 117, 1,3-dimethyl-6-[2-(N-ethyl-3-[4-benzoylphenoxy]propylamino)ethylamino]-2,4(1H,3H)-pyrimidinedione.oxalate] | – | 17% | 23% | – | 3.2% | 3.2% | 6.9% | 16.1% | –
CC(C)NC[C@@H](O)c1ccc(NS(C)(=O)=O)cc1 [d-sotalol, reference compound] | – | 3% | 7.4% | 15.8% | 1.7% | 6.7% | 8.7% | 15.5% | 0%
